Reference: patent US20060014835A1, “Therapeutic agent for chronic obstructive pulmonary disease” (priority 2002, published 2006)

Tested on: rat
Experiment: single oral administration toxicity to rat (minimum lethal dose)
Assay type: in vivo
Procedure: The toxicity of the compounds of the present invention is very low and therefore, the compounds may be considered safe for pharmaceutical use. For example, a minimum of lethal dose of N-hydroxy-5-hydroxy-2(S)-methyl-4(S) (4-phenoxybenzoyl)aminopentanamide and N-hydroxy-5-ethoxymethyloxy-2(S)-methyl-4(S)-(4-phenoxybenzoyl)aminopentanamide by single oral administration to rat was 2000 mg/kg.

Compound	minimum of lethal dose
C[C@@H](C[C@@H](CO)NC(=O)c1ccc(Oc2ccccc2)cc1)C(=O)NO [Compound (1), N-hydroxy-5-hydroxy-2 (S)-methyl-4(S)-(4-phenoxybenzoyl) aminopentanamide]	2000 mg/kg
CCOCOC[C@H](C[C@H](C)C(=O)NO)NC(=O)c1ccc(Oc2ccccc2)cc1 [Compound (2), N-hydroxy 5-ethoxymethyloxy-2(S)-methyl-4(S)-(4-phenoxybenzoyl) aminopentanamide]	2000 mg/kg
